Test results from patent publication US20040038222A1 (priority 2001, published 2004).

Test system: C57BL/6J and C3H/HeJ primary bone marrow-derived macrophages

For brefeldin A [BFA], the “Effect of BFA alone on viability” value was “no effect” and the “Susceptibility of resistant macrophages to intoxication with LF in the presence of BFA” value was “completely susceptible”.
